Source: ChEMBL document CHEMBL3046756, “Synthesis, anti-inflammatory, and structure antioxidant activity relationship of novel 4-quinazoline” (Med Chem Res, 2013)
Activity calls are given as the source filed them. No cut-off for these calls is given here.

Key:
[1] = tested on: Rattus norvegicus; assay: Antipyretic activity in Wistar Rattus norvegicus (rat) assessed as decrease in Brewer's yeast solution-induced hyperthermia at 100 mg/kg, po measured after 3 hr (reference value: 36.8 +/- 1.9 degC); assay type: functional
[2] = tested on: Rattus norvegicus; assay: Effect on GST level in Wistar Rattus norvegicus (rat) liver measured CDNB conjugated per min per mg of protein at 50 mg/kg, po after 10 days (reference value: 0.86 +/- 0.08 mmol); assay type: functional
[3] = tested on: Mus musculus; assay: Toxicity in albino Mus musculus (mouse) assessed as change in skin color at 150 to 900 mg/kg, ip measured within 24 hr; assay type: organism-based; parameters: dose 150-900 mg/kg, route intraperitoneal; details: in vivo
[4] = tested on: Rattus norvegicus; assay: Effect on SGPT level in Wistar Rattus norvegicus (rat) at 100 mg/kg, po qd after 10 days (reference value: 38.77 +/- 4.25 U/I); assay type: functional
[5] = tested on: Radical scavenging activity; assay: Antioxidant activity assessed as DPPH free radical scavenging activity at 6 mg/ml after 5 to 60 min by spectrophotometric analysis; assay type: functional
[6] = Toxicity in ip dosed albino Mus musculus (mouse) assessed as mortality measured within 24 hr; assay type: organism-based; details: in vivo
[7] = tested on: Rattus norvegicus; assay: Anti-inflammatory activity in Wistar Rattus norvegicus (rat) assessed as inhibition of carrageenan-induced paw edema at 50 mg/kg, po administered 30 min prior to carrageenan challenge measured at 180 min relative to untreated control; assay type: functional
[8] = tested on: Mus musculus; assay: Toxicity in albino Mus musculus (mouse) assessed as increase in heart rate at 150 to 900 mg/kg, ip measured within 1 to 2 hr; assay type: organism-based; parameters: route intraperitoneal; details: in vivo
[9] = tested on: Rattus norvegicus; assay: Effect on SGOT level in Wistar Rattus norvegicus (rat) at 50 mg/kg, po qd after 10 days (reference value: 145.50 +/- 13.86 U/I); assay type: functional
[10] = tested on: Rattus norvegicus; assay: Antipyretic activity in Wistar Rattus norvegicus (rat) assessed as decrease in Brewer's yeast solution-induced hyperthermia at 50 mg/kg, po measured after 3 hr (reference value: 36.8 +/- 1.9 degC); assay type: functional
[11] = tested on: Rattus norvegicus; assay: Effect on glutathione reductase level in Wistar Rattus norvegicus (rat) liver measured NADPH oxidized per min per mg of protein at 150 mg/kg, po after 10 days (reference value: 4.19 +/ 0.42 nmol); assay type: functional
[12] = tested on: Rattus norvegicus; assay: Antipyretic activity in Wistar Rattus norvegicus (rat) assessed as decrease in Brewer's yeast solution-induced hyperthermia at 150 mg/kg, po measured after 2 hr (reference value: 37 +/- 1.7 degC); assay type: functional
[13] = tested on: Mus musculus; assay: Toxicity in albino Mus musculus (mouse) assessed as tremor in hind limbs at 150 to 900 mg/kg, ip measured within 24 hr; assay type: organism-based, Hindlimb; parameters: dose 150-900 mg/kg, route intraperitoneal; details: in vivo
[14] = tested on: Rattus norvegicus; assay: Antipyretic activity in Wistar Rattus norvegicus (rat) assessed as decrease in Brewer's yeast solution-induced hyperthermia at 50 mg/kg, po measured after 1 hr (reference value: 37 +/- 3.55 degC); assay type: functional
[15] = tested on: Rattus norvegicus; assay: Effect on glutathione reductase level in Wistar Rattus norvegicus (rat) liver measured NADPH oxidized per min per mg of protein at 50 mg/kg, po after 10 days (reference value: 4.19 +/ 0.42 nmol); assay type: functional
[16] = tested on: Rattus norvegicus; assay: Anti-inflammatory activity in Wistar Rattus norvegicus (rat) assessed as inhibition of carrageenan-induced paw edema at 150 mg/kg, po administered 30 min prior to carrageenan challenge measured at 180 min relative to untreated control; assay type: functional
[17] = tested on: Rattus norvegicus; assay: Anti-inflammatory activity in Wistar Rattus norvegicus (rat) assessed as inhibition of carrageenan-induced paw edema at 100 mg/kg, po administered 30 min prior to carrageenan challenge measured at 60 min relative to untreated control; assay type: functional
[18] = tested on: Rattus norvegicus; assay: Effect on GSH level in Wistar Rattus norvegicus (rat) liver measured per mg of protein at 100 mg/kg, po after 10 days (reference value: 1.84 +/- 0.092 mg); assay type: functional
[19] = Antioxidant activity assessed as Fe2+ chelating activity at 1.5 mg/ml after 60 min by spectrophotometric analysis; assay type: functional
[20] = tested on: Rattus norvegicus; assay: Anti-inflammatory activity in Wistar Rattus norvegicus (rat) assessed as inhibition of carrageenan-induced paw edema at 50 mg/kg, po administered 30 min prior to carrageenan challenge measured at 90 min relative to untreated control; assay type: functional
[21] = tested on: Rattus norvegicus; assay: Anti-inflammatory activity in Wistar Rattus norvegicus (rat) assessed as inhibition of carrageenan-induced paw edema at 150 mg/kg, po administered 30 min prior to carrageenan challenge measured at 30 min post carrageenan challenge relative to untreated control; assay type: functional
[22] = tested on: Rattus norvegicus; assay: Effect on TBARS level in Wistar Rattus norvegicus (rat) serum at 100 mg/kg, po qd after 10 days (reference value: 0.82 +/- 0.073 nmol/ml); assay type: functional
[23] = tested on: Rattus norvegicus; assay: Effect on TBARS level in Wistar Rattus norvegicus (rat) serum at 50 mg/kg, po qd after 10 days (reference value: 0.82 +/- 0.073 nmol/ml); assay type: functional
[24] = tested on: Mus musculus; assay: Toxicity in albino Mus musculus (mouse) assessed as change in temperature at extremities at 150 to 900 mg/kg, ip measured within 24 hr; assay type: organism-based; parameters: dose 150-900 mg/kg, route intraperitoneal; details: in vivo
[25] = tested on: Rattus norvegicus; assay: Effect on gamma-glutamyl transferase level in Wistar Rattus norvegicus (rat) serum at 50 mg/kg, po qd after 10 days (reference value: 0.57 +/- 0.04 U/I); assay type: functional
[26] = tested on: Rattus norvegicus; assay: Effect on TBARS level in Wistar Rattus norvegicus (rat) serum at 150 mg/kg, po qd after 10 days (reference value: 0.82 +/- 0.073 nmol/ml); assay type: functional
[27] = tested on: Rattus norvegicus; assay: Effect on LDH level in Wistar Rattus norvegicus (rat) serum at 150 mg/kg, po qd after 10 days (reference value: 249.89 +/- 13.26 U/I); assay type: functional
[28] = tested on: Rattus norvegicus; assay: Antipyretic activity in Wistar Rattus norvegicus (rat) assessed as decrease in Brewer's yeast solution-induced hyperthermia at 100 mg/kg, po measured after 2 hr (reference value: 37 +/- 1.7 degC); assay type: functional
[29] = tested on: Rattus norvegicus; assay: Effect on GSH level in Wistar Rattus norvegicus (rat) liver measured per mg of protein at 50 mg/kg, po after 10 days (reference value: 1.84 +/- 0.092 mg); assay type: functional
[30] = tested on: Rattus norvegicus; assay: Effect on GSH level in Wistar Rattus norvegicus (rat) liver measured per mg of protein at 150 mg/kg, po after 10 days (reference value: 1.84 +/- 0.092 mg); assay type: functional
[31] = tested on: Mus musculus; assay: Toxicity in albino Mus musculus (mouse) assessed as rapid respiration at 650 to 1800 mg/kg, ip measured within 1 to 2 hr; assay type: organism-based; parameters: route intraperitoneal; details: in vivo
[32] = tested on: Mus musculus; assay: Toxicity in albino Mus musculus (mouse) assessed as increase in heart rate at 650 to 1800 mg/kg, ip measured within 1 to 2 hr; assay type: organism-based; parameters: route intraperitoneal; details: in vivo
[33] = tested on: Mus musculus; assay: Toxicity in albino Mus musculus (mouse) assessed as change in skin color at 650 to 1800 mg/kg, ip measured within 24 hr; assay type: organism-based; parameters: dose 650-1800 mg/kg, route intraperitoneal; details: in vivo
[34] = tested on: Mus musculus; assay: Toxicity in albino Mus musculus (mouse) assessed as change in toes color at 650 to 1800 mg/kg, ip measured within 24 hr; assay type: organism-based; parameters: dose 650-1800 mg/kg, route intraperitoneal; details: in vivo
[35] = tested on: Mus musculus; assay: Toxicity in albino Mus musculus (mouse) assessed as tremor in hind limbs at 650 to 1800 mg/kg, ip measured within 24 hr; assay type: organism-based, Hindlimb; parameters: dose 650-1800 mg/kg, route intraperitoneal; details: in vivo

SMILES | T [1] | Activity [2] | Activity [4] | Activity [5] | LD50 at 24 h [6] | inhibition in vivo at 50 mg/kg [7] | Activity [9] | T [10] | Activity [11] | T [12] | T [14] | Activity [15] | inhibition in vivo at 150 mg/kg [16] | inhibition in vivo at 100 mg/kg [17] | Activity [18] | Activity [19] | inhibition in vivo at 50 mg/kg [20] | inhibition in vivo at 150 mg/kg [21] | Activity [22] | Activity [23] | also measured
O=c1c2ccccc2nc2n1NC(c1ccc(O)c(O)c1)C2 (stereo unspecified) | 36.8 °C | 0.97 mmol | 36.15 U/L | Active | 495 mg/kg | 47% | 139.53 U/L | 36.1 °C | 5.14 nmol | 37 °C | 37.6 °C | 4.33 nmol | 54.6% | 38% | 1.85 mg | 22% | 39.5% | 8.48% | 0.83 nmol/mL | 0.82 nmol/mL | Activity [3]: Toxic; Activity [8]: Toxic; Activity [13]: Toxic; Activity [24]: Toxic; Activity [25]: 0.55 U/L; Activity [26]: 0.8 nmol/mL; Activity [27]: 238.21 U/L; T [28]: 36 °C; Activity [29]: 1.8 mg; Activity [30]: 2.39 mg
COC(=O)c1ccccc1NC(=O)/C=C/c1ccc(O)c(O)c1 | 36.8 °C | 1.3 mmol | 43.21 U/L | Active | 1140 mg/kg | 65.3% | 135.62 U/L | 36.8 °C | 6.36 nmol | 36.5 °C | 37.7 °C | 4.85 nmol | 78.9% | 45.4% | 2.39 mg | 30% | 53.1% | 37.9% | 0.75 nmol/mL | 0.77 nmol/mL | Activity [31]: Toxic; Activity [32]: Toxic; Activity [33]: Toxic; Activity [34]: Toxic; Activity [35]: Toxic; Activity [25]: 0.53 U/L; Activity [26]: 0.7 nmol/mL; Activity [27]: 232.48 U/L; T [28]: 36.7 °C; Activity [29]: 1.94 mg; Activity [30]: 2.95 mg
